For data set [1], the system named is B16-F10. The experiment in a line: Antitumor activity against B16-F10 cells implanted in C57BL/6 mouse assessed as reduction in tumor volume at 30 mg/kg, iv dosed on 2nd, 4th, 6th, 8th, 10th, 12th and 14th day post tumor transplantation. The conditions noted are these: time 14 day. In kind it is functional. The arrangement: scale not given: the % may be the effect or the level left.

The subject of another data set is U-87 MG. The experiment in a line: Drug distribution in plasma membrane of human U87 cells at 100 uM incubated for 24 hrs by confocal microscopy. Type of data set: ADME, cell-based. The conditions noted are these: u-87mg atcc.
The nature of data set [2]: Drug distribution in plasma membrane of mouse B16-F10 cells at 100 uM incubated for 24 hrs by confocal microscopy. Type of data set: ADME, cell membranes. Particulars: b16-f10, 24 h.
Data set [3] in a line: Toxicity in mouse B16-F10 cells assessed as effect on cell viability at 0.1 to 100 uM incubated for 24 hrs. Type of data set: cell-based. The conditions noted are these: b16-f10, 24 h, dose 0.1-100 µM.
Data set [4] has as its system B16-F10. The experiment in a line: Activation of binding of GFP-expressed mouse B16-F10 cells with mouse RAW264.7 cells at 100 uM incubated for 24 hrs by fluorescence microscopy. In kind it is functional, cell-based.
Data set [5] relates to B16-F10. The experiment in a line: Antitumor activity against B16-F10 cells implanted in C57BL/6 mouse assessed as reduction in size and number of metastasis in lung at 30 mg/kg, iv dosed every day after tumor transplantation. In kind it is functional, organism-based.
Data set [6] can be described thus: Toxicity in C57BL/6 mouse assessed as induction of abnormal death at 300 mg/kg, iv measured up to 100 days after injection. In kind it is organism-based. Particulars: in vivo, 2400 h, time < 100 day.

Each structure is given as a SMILES string. Activity calls are given as the source filed them. The calls are words filed in the database; no cut-off is given here.

As to `CC(=O)N[C@H]1[C@H]([C@H](O)[C@H](O)CNC(=O)c2cc3c(s2)-c2ccccc2OC3)O[C@@](O)(C(=O)O)C[C@@H]1O`, the Activity was 60% in the data set on B16-F10 [1], “Non-Toxic” in data set [3] and “Non-Toxic” in data set [6]. In addition, the Drug uptake entry (in the data set with U-87 MG; in data set [2]) was “Active” in each case. Besides, the outcome in the data set with B16-F10 [4] and with B16-F10 [5] was Active.
